Results on 15 compounds are retold here after PubChem BioAssay AID276 (DTP/NCI, 2004).

“And” between values parts separate entries of the source, which are not always exact repeats. Equal values may be shown once. Toxic doses and inconclusive results are not listed.

For this experiment, the system named is B6C3F1 mice, Lewis lung carcinoma iv, survival T/C. Briefly: NCI In Vivo Anticancer Drug Screen. Data for tumor model Lewis Lung Carcinoma (intravenous) in B6C3F1 mice. Conditions: endpoint: median survival time, higher = longer survival. In outline: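 Mice carrying transplanted tumors received test compound; survival in the treated group was divided by that of the vehicle-treated control group to give the T/C value.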

Where [1] appears, read: dose: 25.0 mg/kg/injection, schedule: Q01DX009 (ip), vehicle: saline with Tween-80.
The mark [2] stands for this setting: dose: 50.0 mg/kg/injection, schedule: Q01DX009 (ip), vehicle: saline with Tween-80.
Setting [3] is: dose: 100.0 mg/kg/injection, schedule: Q01DX009 (ip), vehicle: saline with Tween-80.
Where [4] appears, read: dose: 6.25 mg/kg/injection, schedule: Q01DX009 (ip), vehicle: saline with Tween-80.
Setting [5] is: dose: 12.5 mg/kg/injection, schedule: Q01DX009 (ip), vehicle: saline with Tween-80.
Setting [6] is: dose: 12.5 mg/kg/injection, schedule: Q01DX009 (ip), vehicle: saline.
Where [7] appears, read: dose: 25.0 mg/kg/injection, schedule: Q01DX009 (ip), vehicle: saline.
Where [8] appears, read: dose: 50.0 mg/kg/injection, schedule: Q01DX009 (ip), vehicle: saline.
[9] abbreviates: dose: 100.0 mg/kg/injection, schedule: Q01DX009 (ip), vehicle: saline.
[10] abbreviates: dose: 200.0 mg/kg/injection, schedule: Q01DX009 (ip), vehicle: saline.
Setting [11] is: dose: 25.0 mg/kg/injection, schedule: Q01DX009 (ip), vehicle: Klucel (hydroxypropylcellulose) (HPC).
Where [12] appears, read: dose: 50.0 mg/kg/injection, schedule: Q01DX009 (ip), vehicle: Klucel (hydroxypropylcellulose) (HPC).
Where [13] appears, read: dose: 100.0 mg/kg/injection, schedule: Q01DX009 (ip), vehicle: Klucel (hydroxypropylcellulose) (HPC).
Where [14] appears, read: dose: 200.0 mg/kg/injection, schedule: Q01DX009 (ip), vehicle: Klucel (hydroxypropylcellulose) (HPC).
Where [15] appears, read: dose: 400.0 mg/kg/injection, schedule: Q01DX009 (ip), vehicle: Klucel (hydroxypropylcellulose) (HPC).
Setting [16] is: dose: 200.0 mg/kg/injection, schedule: Q01DX009 (ip), vehicle: saline with Tween-80.

Regarding `CC(=O)O[C@@]1(C)[C@@H](C)C(=O)O[C@@H]2CCN3CC=C(COC(=O)[C@]1(C)O)[C@H]23`, the T/C reads like this: under setting [1], 110 % of control; under setting [2], 113 % of control; under setting [3], 285 % of control.

Turning to `COc1cccc2c1C(=O)c1c(O)c3c(c(O)c1C2=O)C[C@@](O)(/C(C)=N\O)C[C@@H]3OC1CC(N)C(O)C(C)O1` (stereo not given in full), the T/C was 90 % of control (dose: 3.12 mg/kg/injection, schedule: Q01DX009 (ip), vehicle: water); 86 % of control (dose: 6.25 mg/kg/injection, schedule: Q01DX009 (ip), vehicle: water); 90 % of control (dose: 12.5 mg/kg/injection, schedule: Q01DX009 (ip), vehicle: water).

As for `NC(=O)c1[nH]nc(C2OC(CO)C(O)C2O)c1O` (stereo not given), the T/C is 91 % of control and 105 % of control (dose: 0.31 mg/kg/injection, schedule: Q01DX009 (ip), vehicle: saline); 98 % of control and 101 % of control (dose: 0.62 mg/kg/injection, schedule: Q01DX009 (ip), vehicle: saline); 120 % of control and 122 % of control (dose: 1.25 mg/kg/injection, schedule: Q01DX009 (ip), vehicle: saline); 122 % of control (dose: 2.5 mg/kg/injection, schedule: Q01DX009 (ip), vehicle: saline).

`COc1ccc2nonc2c1`: the T/C runs as follows: under setting [4], 107 % of control and 112 % of control; under setting [5], 102 % of control and 118 % of control; under setting [1], 101 % of control and 107 % of control; under setting [2], 106 % of control and 109 % of control.

Consider `CN(C)CCC(=O)C(=Cc1ccc(O)cc1)C(=O)CCN(C)C`, for which the T/C runs as follows: under setting [6], 97 % of control; under setting [7], 101 % of control; under setting [8], 102 % of control; under setting [9], 105 % of control and 106 % of control; under setting [10], 104 % of control and 107 % of control.

Consider `C=C(C)[C@@H]1CCc2c(O)c(O)c(=O)cc(C)c2C1`, for which the T/C (dose: 3.12 mg/kg/injection, schedule: Q01DX009 (ip), vehicle: Klucel (hydroxypropylcellulose) (HPC)) is 90 % of control; the T/C (dose: 6.25 mg/kg/injection, schedule: Q01DX009 (ip), vehicle: Klucel (hydroxypropylcellulose) (HPC)) was 92 % of control; the T/C under setting [11] is 102 % of control; the T/C under setting [12] is 97 % of control; the T/C under setting [13] is 90 % of control.

For `CC1CCC(n2cnc3c(Cl)ncnc32)O1` (stereo not given), the T/C was 91 % of control (dose: 12.5 mg/kg/injection, schedule: Q01DX009 (ip), vehicle: Klucel (hydroxypropylcellulose) (HPC)); 107 % of control under setting [11]; 107 % of control under setting [12]; 108 % of control under setting [13]; 113 % of control under setting [14]; 108 % of control under setting [15].

As for `CN=S(=O)(OCCCCCOS(=O)(=NC)c1ccc(C)cc1)c1ccc(C)cc1` (stereo not given), the T/C under setting [4] was 99 % of control; the T/C under setting [5] is 99 % of control; the T/C under setting [1] is 91 % of control; the T/C under setting [2] was 94 % of control; the T/C under setting [3] is 92 % of control; the T/C under setting [16] was 96 % of control.

As for `C[C@]12CCC(=O)C=C1CC[C@@H]1[C@@H]2C(=O)C[C@@]2(C)[C@H]1CC[C@]2(O)C(=O)CO`, the T/C reads like this: under setting [11], 95 % of control; under setting [12], 99 % of control; under setting [13], 98 % of control; under setting [14], 103 % of control; under setting [15], 93 % of control.

As to `C[Si](C)(C)O/C=C1/CCOC1=O`, the T/C was 93 % of control under setting [6]; 101 % of control under setting [7]; 94 % of control under setting [8]; 97 % of control under setting [9]; 91 % of control under setting [10]; 94 % of control (dose: 400.0 mg/kg/injection, schedule: Q01DX009 (ip), vehicle: saline).

Regarding `CNC(=O)/C=C/C1=CN2C(=O)c3ccc(C)c(O)c3NC(OC)C2C1` (stereo not given), the T/C by setting is: (dose: 0.01 mg/kg/injection, schedule: Q01DX009 (ip), vehicle: saline) 90 % of control and 113 % of control; (dose: 0.02 mg/kg/injection, schedule: Q01DX009 (ip), vehicle: saline) 93 % of control; (dose: 0.03 mg/kg/injection, schedule: Q01DX009 (ip), vehicle: saline) 96 % of control; (dose: 0.05 mg/kg/injection, schedule: Q01DX009 (ip), vehicle: saline) 97 % of control and 107 % of control; (dose: 0.1 mg/kg/injection, schedule: Q01DX009 (ip), vehicle: saline) 90 % of control and 103 % of control.

`Cc1cc2c(C(C)C)c(O)c(O)c(C=O)c2c(O)c1-c1c(C)cc2c(C(C)C)c(O)c(O)c(C=O)c2c1O`: the T/C by setting is: (dose: 0.37 mg/kg/injection, schedule: Q01DX009 (ip), vehicle: saline with Tween-80) 101 % of control; (dose: 0.75 mg/kg/injection, schedule: Q01DX009 (ip), vehicle: saline with Tween-80) 101 % of control; (dose: 1.5 mg/kg/injection, schedule: Q01DX009 (ip), vehicle: saline with Tween-80) 105 % of control; (dose: 3.0 mg/kg/injection, schedule: Q01DX009 (ip), vehicle: saline with Tween-80) 106 % of control.

Turning to `NC(=O)CC(N)C(=O)O` (stereo not given), the T/C by setting is: (dose: 50.0 mg/kg/injection, schedule: Q01DX009 (ip), vehicle: other) 95 % of control; under setting [2], 102 % of control; (dose: 100.0 mg/kg/injection, schedule: Q01DX009 (ip), vehicle: other) 110 % of control; under setting [3], 96 % of control; (dose: 200.0 mg/kg/injection, schedule: Q01DX009 (ip), vehicle: other) 97 % of control; under setting [16], 96 % of control. Also, the T/C is, setting by setting: (dose: 400.0 mg/kg/injection, schedule: Q01DX009 (ip), vehicle: other) 92 % of control; (dose: 400.0 mg/kg/injection, schedule: Q01DX009 (ip), vehicle: saline with Tween-80) 97 % of control; (dose: 800.0 mg/kg/injection, schedule: Q01DX009 (ip), vehicle: other) 104 % of control; (dose: 800.0 mg/kg/injection, schedule: Q01DX009 (ip), vehicle: saline with Tween-80) 100 % of control; (dose: 1600.0 mg/kg/injection, schedule: Q01DX009 (ip), vehicle: other) 99 % of control; (dose: 1600.0 mg/kg/injection, schedule: Q01DX009 (ip), vehicle: saline with Tween-80) 96 % of control.

`CCCCCCCC(=O)N/N=C(\CO)[C@]1(O)Cc2c(O)c3c(c(O)c2[C@@H](OC2CC(N)C(O)C(C)O2)C1)C(=O)c1c(OC)cccc1C3=O` (stereo not given in full): the T/C runs as follows: (dose: 1.5 mg/kg/injection, schedule: Q01DX009 (ip), vehicle: saline) 100 % of control; (dose: 1.5 mg/kg/injection, schedule: Q01DX009 (ip), vehicle: water) 108 % of control; (dose: 3.0 mg/kg/injection, schedule: Q01DX009 (ip), vehicle: saline) 102 % of control; (dose: 3.0 mg/kg/injection, schedule: Q01DX009 (ip), vehicle: water) 104 % of control; (dose: 6.0 mg/kg/injection, schedule: Q01DX009 (ip), vehicle: saline) 105 % of control; (dose: 6.0 mg/kg/injection, schedule: Q01DX009 (ip), vehicle: water) 99 % of control. In addition, the T/C reads like this: (dose: 12.0 mg/kg/injection, schedule: Q01DX009 (ip), vehicle: saline) 112 % of control; (dose: 12.0 mg/kg/injection, schedule: Q01DX009 (ip), vehicle: water) 92 % of control; (dose: 24.0 mg/kg/injection, schedule: Q01DX009 (ip), vehicle: saline) 87 % of control.

In the case of `O=P(O)(NCCCl)NCCCl`, the T/C (dose: 25.0 mg/kg/injection, schedule: Q01DX001 (ip), vehicle: saline with Tween-80) was 108 % of control; the T/C (dose: 100.0 mg/kg/injection, schedule: Q01DX001 (ip), vehicle: saline with Tween-80) was 184 % of control and 226 % of control and 312 % of control; the T/C (dose: 200.0 mg/kg/injection, schedule: Q01DX001 (ip), vehicle: saline with Tween-80) is 281 % of control.
